# Results from patent publication US11780841B2, “3,6-methano-1H-pyrrolo[3,2-b]pyridine and 3,6-methano-1H-pyrrolo[3,2-c]pyridine compounds and medicaments using same” (priority 2018, dated 2023).
# pIC50: −log10 of the molar value.
# Test system: recombinant rabies virus 1088 strain expressing Gaussia Luciferase (GLuc) (1088/GLuc)
# Type: cell-based
# Details: read-out: Anti-rabies activity
row,SMILES,pIC50
1,CC(C)C[C@@H]1[C@@H]2[C@@H]3CN[C@@]1(C(=O)NCc1ccccc1)C[C@@H]3CN2CC1CCCCC1 [IF-644],> 5.30
2,O=C(O)CCNC(=O)[C@]12NC[C@H]3C[C@H]1CN(Cc1ccccc1)[C@H]2[C@@H]3Cc1cccc2ccccc12 [IB-616],4.52 to 5.00
3,CC(C)C[C@@H]1[C@H]2CN[C@@]3(C(=O)NCc4ccccc4)[C@@H](C2)CN(Cc2cccc(Cl)c2)[C@@H]13 [IB-865],5.00 to 5.30
4,CC(C)CNC(=O)C12NCC3CC1CN(CCC(=O)O)C2C3Cc1cccc2ccccc12 (centres unmarked) [IB-575],4.52 to 5.00
5,CC(C)C[C@@H]1[C@@H]2[C@@H]3CN[C@@]1(C(=O)NCc1cccc(O)c1)C[C@@H]3CN2Cc1ccc(N(C)C)cc1 [IF-866],4.52 to 5.00
6,O=C(NCCO)[C@]12NC[C@H]3C[C@H]1CN(Cc1ccccc1)[C@H]2[C@@H]3CCc1ccccc1 [IB-681],4.52 to 5.00
7,CC(C)CNC(=O)[C@]12N=C[C@@H]3C[C@H]1CN(Cc1ccccc1)[C@H]2[C@@H]3CC(C)C (relative stereo) [IIB-4],5.00 to 5.30
8,COc1ccc(CN2CC3CC4(C(=O)NCc5ccccc5)N=CC3C2C4CC(C)C)cc1 (centres unmarked) [IIF-85],5.00 to 5.30
9,N=C(N)NCCC[C@@H]1[C@H]2CN[C@@]3(C(=O)NCc4ccc(F)cc4)[C@@H](C2)CN(Cc2ccccc2)[C@@H]13 [IB-250],4.52 to 5.00
10,O=C(O)CCNC(=O)[C@]12NC[C@H]3C[C@H]1CN(CC1CCCCC1)[C@H]2[C@@H]3Cc1cccc2ccccc12 [IB-614],4.52 to 5.00
11,CC(C)CNC(=O)[C@]12NC[C@H]3C[C@H]1CN(Cc1cccc4ccccc14)[C@H]2[C@@H]3CC(C)C [IB-762],> 5.30
12,CC(C)C[C@@H]1[C@H]2CN[C@@]3(C(=O)NCCc4ccccc4)[C@@H](C2)CN(Cc2ccc(F)cc2)[C@@H]13 [IB-725],> 5.30
13,CC(C)CNC(=O)[C@]12NC[C@H]3C[C@H]1CN(CCO)[C@H]2[C@@H]3Cc1cccc2ccccc12 [IB-621],> 5.30
14,CC(C)CCNC(=O)[C@]12NC[C@H]3C[C@H]1CN(CCO)[C@H]2[C@@H]3Cc1cccc2ccccc12 [IB-727],> 5.30
15,O=C(NCc1ccc(O)cc1)[C@@]12C[C@@H]3CN(Cc4ccccc4)[C@@H]([C@@H]3CN1)[C@H]2CCc1ccccc1 (relative stereo) [IF-565],> 5.30
16,CC(C)CC[C@@H]1[C@H]2CN[C@@]3(C(=O)NCc4ccc(F)cc4)[C@@H](C2)CN(CCO)[C@@H]13 [IB-657],4.52 to 5.00
17,CC(C)CCNC(=O)[C@@]12C[C@@H]3CN(CC(C)C)[C@@H]([C@@H]3CN1)[C@H]2Cc1cccc2ccccc12 [IF-674],4.52 to 5.00
18,N=C(N)NCCCNC(=O)[C@]12NC[C@H]3C[C@H]1CN(Cc1ccccc1)[C@H]2[C@@H]3Cc1ccccc1 [IB-276],4.52 to 5.00
19,CC(C)CCN1C[C@H]2C[C@]3(C(=O)NCc4ccccc4)NC[C@H]2[C@H]1[C@H]3CC(C)C [IF-733],> 5.30
20,CC(C)CN1C[C@H]2C[C@]3(C(=O)NCc4ccc(O)cc4)NC[C@H]2[C@H]1[C@H]3CCc1ccccc1 (relative stereo) [IF-576],4.52 to 5.00
21,O=C(NCCc1ccccc1)[C@@]12C[C@@H]3CN(Cc4ccc(F)cc4)[C@@H]([C@@H]3CN1)[C@H]2Cc1ccc(O)cc1 [IF-715],> 5.30
22,O=C(O)CCNC(=O)[C@]12NC[C@H]3C[C@H]1CN(Cc1ccc(O)cc1)[C@H]2[C@@H]3Cc1cccc2ccccc12 [IB-410],4.52 to 5.00
23,O=C(NCCO)[C@@]12C[C@@H]3CN(Cc4cccc5ccccc45)[C@@H]([C@@H]3CN1)[C@H]2Cc1ccccc1 [IF-603],4.52 to 5.00

row,SMILES,pIC50
1,O=C(O)CC[C@@H]1[C@@H]2[C@@H]3CN[C@@]1(C(=O)NCc1cccc4ccccc14)C[C@@H]3CN2CC1CCCCC1 [IF-419],4.52 to 5.00
2,Cc1ccc(CN2C[C@@H]3C[C@@H]4CN(CC(C)C)[C@]3(C(=O)NCc3ccccc3)[C@@H]2[C@@H]4CC(C)C)cc1 (relative stereo) [IB-881],> 5.30
3,COc1ccc(CN2C[C@H]3C[C@]4(C(=O)NCc5ccccc5)NC[C@H]3[C@H]2[C@H]4CC(C)C)cc1 [IF-841],5.00 to 5.30
4,CC(C)C[C@@H]1[C@@H]2[C@@H]3CN[C@@]1(C(=O)NCc1cccc4ccccc14)C[C@@H]3CN2Cc1ccc(O)cc1 (relative stereo) [IF-578],> 5.30
5,CCCCCCNC(=O)[C@]12NC[C@H]3C[C@H]1CN(CC(N)=O)[C@H]2[C@@H]3CCc1ccccc1 [IB-109],4.52 to 5.00
6,NC(=O)CCNC(=O)[C@@]12C[C@@H]3CN(CCc4ccccc4)[C@@H]([C@@H]3CN1)[C@H]2CC(N)=O [IF-219],4.52 to 5.00
7,CC(C)CN1CC2CC3CNC2(C(=O)NCCC(N)=O)C1C3CCc1ccccc1 (centres unmarked) [IB-539],4.52 to 5.00
8,CC(C)CCN1C[C@@H]2C[C@@H]3CN[C@]2(C(=O)NCC(C)C)[C@@H]1[C@@H]3CC(C)C [IB-753],> 5.30
9,CC(C)CC[C@@H]1[C@H]2CN[C@@]3(C(=O)NCC(C)C)[C@@H](C2)CN(CC(C)C)[C@@H]13 [IB-378],> 5.30
10,CC(C)CNC(=O)C12NCC3CC1CN(CC1CCCCC1)C2C3CCC(=O)O (centres unmarked) [IB-510],4.52 to 5.00
11,CCOc1ccc(CN2CC3CC4C=NC3(C(=O)NCc3ccccc3)C2C4CC(C)C)cc1 (centres unmarked) [IIB-97],4.52 to 5.00
12,Cc1ccc(CN2C[C@@H]3C[C@@H]4CN(C(=O)CC(C)C)[C@]3(C(=O)NCc3ccccc3)[C@@H]2[C@@H]4CC(C)C)cc1 (relative stereo) [IB-883],> 5.30
13,Cc1ccc(CN2C[C@@H]3C[C@@H]4CN[C@]3(C(=O)NCc3ccccc3)[C@@H]2[C@@H]4CC(C)C)cc1 [IB-867],5.00 to 5.30
14,CC(C)CN1C[C@H]2C[C@]3(C(=O)NCCc4ccccc4)NC[C@H]2[C@H]1[C@H]3Cc1ccc(O)cc1 (relative stereo) [IF-567],4.52 to 5.00
15,O=C(NCCc1ccccc1)[C@@]12C[C@@H]3CN(CC4CCCCC4)[C@@H]([C@@H]3CN1)[C@H]2Cc1cccc2ccccc12 [IF-718],> 5.30
16,CCCCCCNC(=O)[C@@]12C[C@@H]3CN(CCC(C)C)[C@@H]([C@@H]3CN1)[C@H]2Cc1ccccc1 (relative stereo) [IF-599],4.52 to 5.00
17,O=C(NCc1ccc(F)cc1)[C@]12NC[C@H]3C[C@H]1CN(CCO)[C@H]2[C@@H]3Cc1ccccc1 [IB-479],4.52 to 5.00
18,CCCCCCNC(=O)[C@]12NC[C@H]3C[C@H]1CN(Cc1ccccc1)[C@H]2[C@@H]3CCCNC(=N)N [IB-249],4.52 to 5.00
19,O=C(NCCO)[C@]12NC[C@H]3C[C@H]1CN(Cc1ccc(F)cc1)[C@H]2[C@@H]3CCc1ccccc1 [IB-669],4.52 to 5.00
20,NC(=O)CCNC(=O)[C@]12NC[C@H]3C[C@H]1CN(CCc1ccccc1)[C@H]2[C@@H]3Cc1ccccc1 [IB-707],> 5.30
21,CC(C)C[C@@H]1[C@H]2CN[C@@]3(C(=O)NCc4ccccc4)[C@@H](C2)CN(CCc2ccccc2)[C@@H]13 [IB-757],> 5.30
22,N=C(N)NCCCNC(=O)[C@]12NC[C@H]3C[C@H]1CN(Cc1cccc4ccccc14)[C@H]2[C@@H]3CCc1ccccc1 [IB-354],> 5.30
23,CC(C)CC[C@@H]1[C@H]2CN[C@@]3(C(=O)NCc4ccc(F)cc4)[C@@H](C2)CN(CCC(=O)O)[C@@H]13 [IB-399],4.52 to 5.00

row,SMILES,pIC50
1,CC(C)CC[C@@H]1[C@@H]2[C@@H]3CN[C@@]1(C(=O)NCc1ccccc1)C[C@@H]3CN2CC(C)C [IF-675],> 5.30
2,N=C(N)NCCC[C@@H]1[C@@H]2[C@@H]3CN[C@@]1(C(=O)NCc1ccccc1)C[C@@H]3CN2Cc1cccc2ccccc12 [IF-236],4.52 to 5.00
3,CC(C)CCN1C[C@@H]2C[C@@H]3CN[C@]2(C(=O)NCCC(N)=O)[C@@H]1[C@@H]3CCc1ccccc1 [IB-636],4.52 to 5.00
4,CCCCCCNC(=O)[C@@]12C[C@@H]3CN(Cc4ccc(F)cc4)[C@@H]([C@@H]3CN1)[C@H]2CCCNC(=N)N [IF-298],4.52 to 5.00
5,CCCCCCNC(=O)[C@@]12C[C@@H]3CN(Cc4ccccc4)[C@@H]([C@@H]3CN1)[C@H]2CC(C)C (relative stereo) [IF-560],> 5.30
6,CC(C)C[C@@H]1[C@@H]2[C@@H]3CN[C@@]1(C(=O)NCCc1ccccc1)C[C@@H]3CN2CC(C)C [IF-725],4.52 to 5.00
7,Cc1ccc(CN2C[C@H]3C[C@@]4(C(=O)NCc5ccccc5)[C@H](CC(C)C)[C@@H]2[C@@H]3CN4CC(C)C)cc1 [IF-856],> 5.30
8,CC(C)NC(=O)[C@]12NC[C@H]3C[C@H]1CN(Cc1ccc(O)cc1)[C@H]2[C@@H]3Cc1cccc2ccccc12 [IB-502],> 5.30
9,Cc1ccc(CN2C[C@@H]3C[C@@H]4CN(C(N)=O)[C@]3(C(=O)NCc3ccccc3)[C@@H]2[C@@H]4CC(C)C)cc1 (relative stereo) [IB-888],4.52 to 5.00
10,CC(C)CC[C@@H]1[C@@H]2[C@@H]3CN[C@@]1(C(=O)NCc1ccc(O)cc1)C[C@@H]3CN2CC1CCCCC1 [IF-474],> 5.30
11,CC(C)CC[C@@H]1[C@@H]2[C@@H]3CN[C@@]1(C(=O)NCCc1ccccc1)C[C@@H]3CN2CC1CCCCC1 [IF-717],> 5.30
12,CC(C)CC[C@@H]1[C@H]2CN[C@@]3(C(=O)NCc4ccc(O)cc4)[C@@H](C2)CN(CCC(=O)O)[C@@H]13 [IB-402],4.52 to 5.00
13,N=C(N)NCCCNC(=O)[C@@]12C[C@@H]3CN(Cc4cccc5ccccc45)[C@@H]([C@@H]3CN1)[C@H]2CCc1ccccc1 [IF-389],> 5.30
14,NC(=O)CCNC(=O)[C@@]12C[C@@H]3CN(Cc4ccc(F)cc4)[C@@H]([C@@H]3CN1)[C@H]2Cc1cccc2ccccc12 [IF-539],> 5.30
15,CC(C)CC[C@@H]1[C@@H]2[C@@H]3CN[C@@]1(C(=O)NCCc1ccccc1)C[C@@H]3CN2CC(C)C [IF-727],> 5.30
16,NC(=O)CN1C[C@H]2C[C@]3(C(=O)NCc4ccc(F)cc4)NC[C@H]2[C@H]1[C@H]3Cc1cccc2ccccc12 [IF-97],4.52 to 5.00
17,O=C(NCCO)[C@@]12C[C@@H]3CN(Cc4ccccc4)[C@@H]([C@@H]3CN1)[C@H]2Cc1cccc2ccccc12 [IF-624],4.52 to 5.00
18,CC(C)CCN1C[C@H]2C[C@]3(C(=O)NCc4ccc(F)cc4)NC[C@H]2[C@H]1[C@H]3Cc1ccccc1 (relative stereo) [IF-547],> 5.30
19,CC(C)CCN1CC2CC3C=NC2(C(=O)NCc2ccc(F)cc2)C1C3CC(C)C (centres unmarked) [IIB-104],5.00 to 5.30
20,O=C(O)CC[C@@H]1[C@H]2CN[C@@]3(C(=O)NCc4cccc5ccccc45)[C@@H](C2)CN(CCO)[C@@H]13 [IB-425],4.52 to 5.00
21,NC(=O)CN1C[C@@H]2C[C@@H]3CN[C@]2(C(=O)NCc2ccc(F)cc2)[C@@H]1[C@@H]3Cc1ccccc1 [IB-92],4.52 to 5.00

# Same assay, conditions: read-out: IC50
row,SMILES,pIC50
1,CC(C)CNC(=O)[C@]12N=C[C@@H]3C[C@H]1CN(Cc1ccccc1)[C@H]2[C@@H]3CC(C)C (relative stereo) [IIB-4],5.05
